Data on eight molecules can be found in PubChem BioAssay (NCI).

Molecules are shown by their SMILES. Several values for one entry are separate records, joined by “and”; a condition that tells them apart may be missing. Equal entries are not always repeated.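 Cultured in 96-well plates, cells were exposed to test compound for 48 hours across five concentrations. At the GI50, growth is halved. At the TGI there is no net growth.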

Test systems include HCT-15 colon; MCF7 breast; MOLT-4 leukemia; OVCAR-8 ovarian; RXF 393 renal; SF-295 CNS; SK-MEL-28 melanoma; SNB-75 CNS; UACC-257 melanoma; UACC-62 melanoma.
Holding throughout (assay): NCI-60 cell line screen, 48 h

In the case of `CCNC(=O)c1cc2c(-c3cc(C(C)(C)O)ccc3Oc3c(C)cc(F)cc3C)cn(C)c(=O)c2[nH]1`, the GI50 in the test on HCT-15 colon is 1.84 µM; in the test on MCF7 breast, 0.521 µM; with MOLT-4 leukemia, 2.36 µM; in the test on OVCAR-8 ovarian it was 2.54 µM; in the test on RXF 393 renal, 1.81 µM; with SF-295 CNS it was 2.19 µM. The GI50 in the test on SK-MEL-28 melanoma is 4.37 µM; in the test on SNB-75 CNS, 0.108 µM; in the test on UACC-257 melanoma, 2.27 µM; in the test on UACC-62 melanoma, 0.17 µM. In addition, the TGI in the test on HCT-15 colon is 14.2 µM; in the test with MCF7 breast, 12.9 µM; in the test with MOLT-4 leukemia, 10.2 µM; with OVCAR-8 ovarian, 20.4 µM; with RXF 393 renal, 5.2 µM; in the test on SF-295 CNS, 11 µM. The TGI in the test with SK-MEL-28 melanoma stood at 17.9 µM; in the test on SNB-75 CNS, 12.8 µM; in the test on UACC-257 melanoma it was 18.5 µM; in the test with UACC-62 melanoma, 9.42 µM.

As to `N#Cc1c(N)nc(N2CCOCC2)c(C#N)c1-c1cccnc1`, the GI50 is over 100 µM in the test with HCT-15 colon; 55.8 µM with MCF7 breast; over 100 µM in the test on MOLT-4 leukemia; over 100 µM in the test with OVCAR-8 ovarian; over 100 µM in the test with RXF 393 renal; 44.4 µM with SF-295 CNS. Also, the GI50 is over 100 µM in the test with SK-MEL-28 melanoma, 11.1 µM in the test with SNB-75 CNS, 93.1 µM in the test with UACC-257 melanoma and 43.4 µM in the test with UACC-62 melanoma. The TGI in the test on HCT-15 colon, in the test with MCF7 breast, with MOLT-4 leukemia, in the test on OVCAR-8 ovarian, in the test with RXF 393 renal and with SF-295 CNS was over 100 µM each time. Moreover, the TGI in the test on SK-MEL-28 melanoma is over 100 µM; in the test on SNB-75 CNS it was 43.6 µM; with UACC-257 melanoma, over 100 µM; in the test with UACC-62 melanoma it was over 100 µM.

Turning to `N#CSCC1CC(O)(c2ccccc2)CC(c2ccc(F)cc2)O1` (stereo not drawn), the GI50 is 1.76 µM with HCT-15 colon; 2.64 µM in the test with MCF7 breast; 0.674 µM in the test on MOLT-4 leukemia; 2.02 µM with OVCAR-8 ovarian; 1.72 µM in the test with RXF 393 renal; 1.64 µM in the test on SF-295 CNS. The GI50 in the test with SK-MEL-28 melanoma is 4.23 µM; in the test on SNB-75 CNS, 1.44 µM; with UACC-257 melanoma, 3.29 µM; in the test with UACC-62 melanoma, 2.14 µM. Further, the TGI in the test on HCT-15 colon stood at 4.89 µM; with MCF7 breast, 8.33 µM; with MOLT-4 leukemia, 3.51 µM; in the test on OVCAR-8 ovarian, 4.37 µM; in the test on RXF 393 renal, 3.47 µM; with SF-295 CNS it was 3.34 µM. Further, the TGI in the test on SK-MEL-28 melanoma turned out to be 15.4 µM; in the test on SNB-75 CNS, 3.24 µM; in the test with UACC-257 melanoma, 11.9 µM; in the test with UACC-62 melanoma, 6.12 µM.

Take `NC(=O)c1cc(-c2ccc(F)cc2)cc(-c2ccncc2)c1N`: the GI50 was over 25 µM in the test on HCT-15 colon; over 25 µM in the test on MCF7 breast; over 25 µM with MOLT-4 leukemia; over 25 µM in the test on OVCAR-8 ovarian; over 18.6 µM in the test with RXF 393 renal; over 21.7 µM in the test with SF-295 CNS. Besides, the GI50 in the test on SK-MEL-28 melanoma was over 25 µM; in the test on SNB-75 CNS, 4.99 µM; in the test on UACC-257 melanoma it was over 25 µM; in the test with UACC-62 melanoma, over 25 µM. Besides, the TGI in the test on HCT-15 colon, with MCF7 breast, in the test with MOLT-4 leukemia, with OVCAR-8 ovarian, with RXF 393 renal and in the test on SF-295 CNS was over 25 µM throughout. The TGI with SK-MEL-28 melanoma, with SNB-75 CNS, in the test on UACC-257 melanoma and in the test with UACC-62 melanoma was over 25 µM in each case.

For `CC(=O)O[C@]1(C(C)=O)CC[C@H]2[C@@H]3C=C(C)C4=CC(=O)CC[C@]4(C)[C@H]3CC[C@@]21C`, the GI50 in the test with HCT-15 colon was over 100 µM; in the test on MCF7 breast, over 100 µM; with MOLT-4 leukemia, 43.2 µM; in the test with OVCAR-8 ovarian, over 75.4 µM; in the test with RXF 393 renal, 57.5 µM; with SF-295 CNS, over 83.3 µM. The GI50 was over 100 µM in the test with SK-MEL-28 melanoma, over 59.8 µM in the test with SNB-75 CNS, over 89.2 µM with UACC-257 melanoma and over 71.8 µM in the test with UACC-62 melanoma. In addition, the TGI with HCT-15 colon, in the test on MCF7 breast, in the test on MOLT-4 leukemia, with OVCAR-8 ovarian, in the test with RXF 393 renal and in the test on SF-295 CNS was over 100 µM each time. For the same molecule, the TGI with SK-MEL-28 melanoma, with SNB-75 CNS, in the test on UACC-257 melanoma and with UACC-62 melanoma was over 100 µM each time.

Consider `CC1OC(OC2C(O[C@H]3CC[C@@]4(C)C(=CC[C@H]5[C@@H]6C[C@@H]7O[C@]8(CC[C@H](C)CN8)[C@@H](C)[C@@H]7[C@@]6(C)CC[C@@H]54)C3)OC(CO)C(O)C2OC2OC(CO)C(O)C(O)C2O)C(O)C(O)C1O` (stereo partly drawn), for which the TGI came out at 30.3 µM in the test with HCT-15 colon; 32.9 µM in the test with MCF7 breast; 42.1 µM in the test with MOLT-4 leukemia; 31.1 µM in the test on OVCAR-8 ovarian; 31.5 µM with RXF 393 renal; 34.1 µM in the test on SF-295 CNS. Moreover, the TGI in the test on SK-MEL-28 melanoma was determined as 38.5 µM; with SNB-75 CNS, 29.2 µM; in the test on UACC-257 melanoma, 33 µM; with UACC-62 melanoma it was 32.1 µM.

Turning to `COC(=O)CCCC(=O)O`, the TGI in the test on HCT-15 colon, in the test on MCF7 breast, in the test on MOLT-4 leukemia, with OVCAR-8 ovarian, with RXF 393 renal and with SF-295 CNS was over 100 µM each time. The TGI in the test on SK-MEL-28 melanoma, in the test with SNB-75 CNS, in the test on UACC-257 melanoma and in the test on UACC-62 melanoma was over 100 µM in each case.

For `CCCCCCCCCCCC1CCCC(C)N1` (stereo not drawn), the GI50 in the test on HCT-15 colon is 2.85 µM; in the test on MCF7 breast, 3.24 µM; in the test with MOLT-4 leukemia it was 1.79 µM; in the test on OVCAR-8 ovarian, 13.8 µM; in the test with RXF 393 renal, 15.2 µM; in the test on SF-295 CNS, 13.5 µM. Further, the GI50 with SK-MEL-28 melanoma was 13.6 µM; with SNB-75 CNS, 9.82 µM; in the test with UACC-257 melanoma, 10.3 µM; in the test with UACC-62 melanoma, 8.12 µM. The TGI in the test on HCT-15 colon was 13.3 µM and 104 µM; in the test on OVCAR-8 ovarian, 40.1 µM and 167 µM; in the test on RXF 393 renal, 35.6 µM and 108 µM; in the test with SF-295 CNS, 28.3 µM and 154 µM; in the test with SK-MEL-28 melanoma, 28.2 µM and 152 µM; in the test with SNB-75 CNS, 24 µM and 151 µM. For the same molecule, the TGI is 24.4 µM and 119 µM in the test on UACC-257 melanoma; 23.6 µM and 102 µM in the test with UACC-62 melanoma.
